# According to PMC11493595, “Stretching the structural envelope of imatinib to reduce β-amyloid production by modulating both β- and γ-secretase cleavages of APP” (Frontiers in Chemistry, 2024):
# Counter-ions that a name gives are not always drawn. Like-named read-outs stand apart in the source and are kept apart here.
# Experiments:
# BACE1 = test system: BACE1; set-up: method as in Netzer et al., 2017; settings: two in vitro BACE1 assays, concentrations up to 100 μM; ref Netzer et al., 2017; cited from earlier work
# N2a695 cells [1] = test: Screening of Aβ production in N2a695 cells (Aβ ELISA of cell supernatants); format: cell-based
# Method: (§1) N2a695 were cultured in 1:1 OptiMem Reduced Serum Media (Life Technologies): Dulbecco’s Modified Eagle Medium ([+] 4.5 g/L D-glucose [+] L-Glutamine; [−] Sodium pyruvate (Life Technologies) supplemented with 5% fetal bovine serum, 0.4% Penstrep and 0.4% Geneticin and incubated at 37°C in 5% CO2. Antibodies were obtained from The Laboratory of Molecular and Cellular Neuroscience at The Rockefeller University. Human Aβ40 and Aβ42 ELISA plates (Life Technologies) and Plus MSD (Mesoscale Discovery) plates for Aβ Peptide (Aβ38, Aβ40 and Aβ42) Panel 1 (6E10) Kit (Catalog number K15200G) were obtained from Thermo Fisher, Life Technologies and Meso Scale Discovery.
# (§2) N2a695 cells were used to screen all new compounds and in the follow-up studies with compounds found active in the preliminary screen. In a typical experiment, 6-well tissue culture plates (Corning) were seeded at 4.0 × 10^5–4.5 × 10^5 N2a695 cells/mL, 2 mL/well for overnight incubation. When cells were >95% confluent, media were exchanged with fresh media containing 10 µM solutions of compounds or DMSO carrier alone and cells were incubated at 37°C in 5% CO2 for 5 h. Culture media were collected and soluble Aβ concentrations in the media were determined by ELISA or MSD plates for human Aβ peptides as per manufacturer instructions. Signals for Aβ were measured using Perkin Elmer Envision and SQ120 MSD ELISA reader. Follow-up studies with N2a695 cells were performed similarly.
# Specifically, we exposed N2a695 cells to increasing concentrations of each compound and measured the production of Aβ38, 40, and 42. […] Remarkably, this occurs for all Aβ peptides tested shorter than 40 amino acids (Figure 2C). Moreover, for some compounds that modulate γ-secretase activity most conspicuously at 5 μM, this effect vanishes at 10 μM, relative to controls (Figure 2B, C). […]
# [2] = test system: β- and γ-cleavages of APP; test: Aβ in N2a cells transiently transfected with APP-FL or APP99 (APP-βCTF): BACE vs γ-secretase cleavage; format: cell-based; settings: N2a cells transiently transfected with APP695 (APP-FL) or APP C99, 5 h
# Method: To determine effects of compounds on BACE1 vs. GS inhibition, we used N2a cells transiently transfected with full length APP (APP-FL) or with APP99 (APP-βCTF) as described previously ([Netzer et al., 2017]; [Sun et al., 2019]). After 48 h, media were removed and fresh media containing compound 1a and analogs were added. Following 5 h of incubation, cell supernatants were collected, and analyzed using MSD-ELISA for Aβ and sAPPα and western blot for sAPPβ.
# We focused on IMTi-1 and its analogs 1d, 1f and 1p. […] To test whether these compounds lower Aβ levels by affecting the BACE and/or γ-secretase cleavages, we transfected wild-type (wt) cells with APP-FL and APP βCTF (C99), respectively, and incubated the cells with IMTi-1 (isomer) and analogs 1d, 1f and 1p. We used BACE inhibitor, MK8931, and γ-secretase inhibitor, DAPT, as controls and performed the experiments and processed the results as described previously ([Sun et al., 2019]).
# Abl1 kinase = biological target: T1, Abl1 kinase (Homo sapiens, UniProt P00519); test: In vitro kinase activity assay (split-luciferase, Luceome); format: biochemical; settings: read-out: IC50, Abl kinase
# T1 sequence (P00519 242-493 limits assumed): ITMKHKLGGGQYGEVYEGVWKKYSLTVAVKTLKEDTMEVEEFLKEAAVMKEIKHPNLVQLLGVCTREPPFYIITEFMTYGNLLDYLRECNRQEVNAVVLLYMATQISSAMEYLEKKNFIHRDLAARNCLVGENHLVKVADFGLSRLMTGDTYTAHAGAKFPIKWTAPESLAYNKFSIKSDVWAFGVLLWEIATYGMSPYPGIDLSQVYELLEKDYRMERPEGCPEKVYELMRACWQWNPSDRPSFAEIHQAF
# Method: The assay was performed by Luceome Biotechnologies, LLC. Typically, 10 mM stock solutions of the compounds were diluted in DMSO to a concentration of 250 μM. Prior to initiating the assay, all test compounds were evaluated for false positive against split-luciferase ([Jester et al., 2010]). For kinase assays, each Cfluc-Kinase was translated along with Fos-Nfluc using a cell-free system (rabbit reticulocyte lysate) at 30°C for 90 min 24 μL aliquot of this lysate containing either 1 μL of DMSO (for no-inhibitor control) or compound solution in DMSO (10 μM final concentration) was incubated for 30 min at room temperature followed by 1 h in presence of a kinase specific probe. 80 μL of luciferin assay reagent was added to each solution and luminescence was immediately measured on a luminometer. The percent Inhibition was calculated using the following equation: % Inhibition = (ALUcontrol–ALUsamplex 100)/ALUcontrol.
# N2a695 cells [3] = test: Aβ38, Aβ40, Aβ42 in conditioned media of N2a695 cells, MSD ELISA; format: cell-based; settings: N2a695 cell supernatant, 5 h, single experiment
# Method: as §1, §2
# Similarly, we evaluated all IMTi-1 and IMTi-2 analogs, including the Boc-protected compounds, using N2a695 cells. […] To further examine the activities of the active analogs and whether IMTi’s has any bias on amyloidogenic vs. nonamyloidogenic cleavage of APP, we retested dozens of IMTi-1 and 2 analogs, including several found active in the screening assay and some tested for the first time using N2a695 cells as above, and performed MSD ELISA of the conditioned media to measure Aβ40, Aβ38, and Aβ42 peptides simultaneously.
# N2a695 cells [4] = test: as above; format: cell-based; settings: N2a695 cell supernatant, 5 h, single experiment; remark: listed apart in the source
# [5] = In vivo brain permeability and retention, LC-MS/MS of brain and plasma; set-up: species or system C57BL/6J WT mice; settings: for concentration at 4 h: C57BL/6J, mouse, ip, 2 months old WT mice, 50 mg/kg i.p., 4 h after injection, mesylate salt
# Method: All procedures involving animals were approved by The Rockefeller University Institutional Animal Care and Use Committee and were in accordance with the National Institutes of Health guidelines. […] Mice were euthanized 4 h post drug administration and brain hemispheres and plasma were harvested and collected in pre-weighted tubes and snap-frozen in liquid nitrogen. To measure brain and plasma concentrations of the specific compounds, mouse brain tissue was homogenized and extracted using Ethanol, and plasma samples were extracted using Acetonitrile. Concentration of the drug and metabolites in brain and in plasma was determined by LC-MS/MS analysis.
# After tubes were weighed to calculate brain weight and thawed to room temperature, 1 mL of EtOH (200 Proof) was added to the microcentrifuge tubes containing the harvested right brain hemispheres. 10 μL of 1 µM internal standard (ABG190, a synthetic analog of 1a) was added to each tube and samples were sonicated to homogeneity (∼2 min). Tubes were shaken at 40 min at room temperature (1K RPM) and centrifuged for 8 min at 13K RPM. The supernatant (0.9 mL) was transferred to a new collection tube and 0.5 mL EtOH was added to the pellet for a second round of extraction as described above. 600 μL of the supernatant was combined with the first collection before samples were submitted for LCMS-MS analysis ([Sun et al., 2019]).
# 300 μL of acetonitrile was added to collected blood samples. 10 μL of 1 µM internal standard (ABG190) was added to each tube and samples were sonicated to homogeneity (∼2 min). Tubes were […] at 13 K RPM for 9 min 300 μL of the supernatant was collected and combined with 500 µL of 5 mM ammonium formate before samples were submitted for LCMS-MS analysis ([Sun et al., 2019]).
SMILES,Inhibition of BACE1 enzymatic activity (BACE1),Activity in Aβ production assays (N2a695 cells [1]; N2a695 cells),"Aβ38 levels relative to controls (N2a695 cells [1]; 5 μM, N2a695 cells, ELISA)","Reduction of Aβ40 levels compared with IMT (N2a695 cells [1]; 10 µM, N2a695 cell supernatants, anti-Aβ40 ELISA)","BACE and γ-secretase cleavage of APP, Aβ levels [2]",IC50 (Abl1 kinase),activity at 10 µM (N2a695 cells [3]; read-out: % Aβ38 of DMSO ctrl),activity at 10 µM (N2a695 cells [3]; read-out: % Aβ40 of DMSO ctrl),activity at 10 µM (N2a695 cells [3]; read-out: % Aβ42 of DMSO ctrl),activity at 5 µM (N2a695 cells [4]; read-out: % Aβ38 of DMSO ctrl),activity at 5 µM (N2a695 cells [4]; read-out: % Aβ40 of DMSO ctrl),activity at 5 µM (N2a695 cells [4]; read-out: % Aβ42 of DMSO ctrl),"Brain exposure ([5]; 2 months old mice, 4 h post administration)","concentration at 4 h ([5]; brain, read-out: Brain concentration)","concentration at 4 h ([5]; plasma, read-out: Plasma concentration)"
"Cc1ccc(NC(=O)c2ccc(CN3CCN(C)CC3)cc2)cc1Nc1nccc(-c2cccnc2)n1 [IMT, imatinib mesylate, reference compound]",does not inhibit BACE1 enzymatic activity,active,–,–,–,–,–,–,–,–,–,–,–,–,–
Cc1ccccc1Nc1nccc(-c2cncc(NC(=O)c3ccc(CN4CCN(C)CC4)cc3)c2)n1 [IMTi-1],–,active,boost levels of Aβ38 above controls,reduced Aβ40 levels more strongly than IMT,lower BACE and γ-secretase cleavage of APP,1.17 µM,–,–,–,–,–,–,–,–,–
Cc1ccccc1Nc1nccc(-c2cccc(NC(=O)c3ccc(N4CCN(C)CC4)cc3)c2)n1 [Compound 1d],–,–,–,–,lower BACE and γ-secretase cleavage of APP,–,22%,14%,11%,60%,34%,28%,–,–,–
Cc1ccccc1Nc1nccc(-c2cccc(NC(=O)c3ccc(CCN(C)C)cc3)c2)n1 [Compound 1f],–,–,–,–,lower BACE and γ-secretase cleavage of APP,–,80%,29%,26%,113%,52%,45%,high brain exposure,92 ng/g,550 ng/mL
CN(C)CCc1ccc(C(=O)Nc2cccc(-c3ccnc(Nc4cccnc4)n3)c2)cc1 [Compound 1p],–,–,–,–,lower BACE and γ-secretase cleavage of APP,–,24%,18%,15%,58%,41%,38%,–,–,–
